Where two headings read alike, the source gives them in different places.
Key:
[1] = system: HIV-2; test: Inhibition of HIV-2 in CEM/TK- cells; assay type: cell-based
How it was run: (§1)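 Cells at 5×10^5 per mL were infected with virus at 100 CCID50 per mL and mixed with test compound dilutions. In CEM cultures, giant cell formation was scored microscopically at day 4; in MT-4 cultures, viable cells were counted by trypan blue staining at day 5.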

[2] = system: HIV-1; test: microbe, parasite or virus in culture
How it was run: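 Giant cell formation, recorded under the microscope on day 4, served as the end point for CEM cells, while MT-4 viability was determined by trypan blue exclusion on day 5. Cell suspensions (5×10^5/mL) received virus at 100 CCID50/mL before compound addition.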

[3] = system: III-B strain of HIV-1; test: microbe, parasite or virus in culture; assay type: cell-based
Method: (§2) C8166 cells. Cells were grown in RPMI 1640 with 10% calf serum. 4×10^4 cells per microtiter plate well were mixed with 5-fold dilutions of compound prior to addition of 10 CCID50 units of III-B strain of HIV-1 and incubated for 5–7 days (Betbeder et al. Antiviral Chem. Chemother. 1, 241–247, 1990). Formation of syncytia was examined from 2 days post-infection. Culture fluid was collected at 5–7 days and gp120 antigen production measured by ELISA (Mahmood and Hay, J. Immunol. Meth., 151, 9–13, 1992). […] Cell viability of infected and uninfected cells were assessed by the MTT-Formazen method (Pauwels et al. J. Virol. Meth. 20, 309–321, 1988).
(§3) Each assay was carried out in duplicate, on at least two separate occasions, and data quoted are the average of each separate assay.

[4] = target: HIV RT (Human immunodeficiency virus type 1 group M subtype B, UniProt P03366); test: Inhibition of HIV reverse transcriptase; assay type: biochemical; conditions: Table 4
[5] = system: CEM cells; test: Toxicity to CEM cells; assay type: cell-based, human; conditions: Table 6; mean of two or more repeat experiments
[6] = system: C8166 cells; test: Toxicity in C8166 cells (MTT-Formazen); assay type: cell-based; conditions: Table 3
Method: as §2, §3

[7] = system: HIV1 d4T-Sensitive; test: HIV1 in HeLa cells, d4T-sensitive strain; assay type: cell-based, HIV-1; conditions: Table 4
[8] = system: MT-4 cells; test: Toxicity to MT-4 cells; assay type: cell-based, human; conditions: Table 6; mean of two or more repeat experiments; read-out: CC50 MT4: CC50 for toxicity to MT-4 cells
Method: (§4) Cells were infected with HIV-1 as previously described [Balzarini et al. AIDS (1991), 5, 21–28]. Briefly, 5×10^5 cells per milliliter were infected with HIV-1 or HIV-2 at 100 CCID50 (50% cell culture infective dose) per milliliter of cell suspension. Then 100 μL of the infected cell suspension was transferred to microtiter plate wells and mixed with 100 μL of the appropriate dilutions of the test compounds. After 4 days giant cell formation was recorded microscopically in the HIV-infected cell cultures [CEM], and after 5 days the number of viable cells was determined by trypan blue staining of the HIV-infected cell cultures [MT4].
(§5) The data columns are, in order: • HIV1 MT4: EC50 in μM for inhibition of HIV-1 in MT4 cells. • HIV2 MT4: EC50 in μM for inhibition of HIV-2 in MT4 cells. • CC50 MT4: CC50 in μM for toxicity to MT-4 cells. • HIV1 CEM: EC50 in μM for inhibition of HIV-1 in CEM cells. • HIV2 CEM: EC50 in μM for inhibition of HIV-2 in CEM cells. • HIV2 CEM-TK-: EC50 in μM for inhibition of HIV-2 in CEM/TK^− cells. • CC50 CEM: CC50 in μM for toxicity to CEM cells. • EC50 MSV: EC50 in μM for inhibition of MSV • MCC MSV: Minimum cytotoxic concentration in MSV assay

[9] = system: HIV1 d4T-Resistant; test: HIV1 in HeLa cells, d4T-resistant strain; assay type: cell-based, HIV-1; conditions: read-out: EC50 HeLa HIV1 d4T-Resistant
[10] = system: HIV-2; test: Inhibition of HIV-2 in MT4 cells; assay type: cell-based; conditions: Table 6; mean of two or more repeat experiments; read-out: HIV2 MT4: EC50 for inhibition of HIV-2 in MT4 cells
Method: as §4, §5

[11] = system: HIV-1; test: Inhibition of HIV-1 in MT4 cells; assay type: cell-based; conditions: Table 6; mean of two or more repeat experiments; read-out: HIV1 MT4: EC50 for inhibition of HIV-1 in MT4 cells
Method: as §4, §5

[12] = system: HIV-2; test: Inhibition of HIV-2 in CEM cells (giant cell formation); assay type: cell-based
How it was run: as §1

[13] = Toxicity in C8166 cells (MTT-Formazen); assay type: cell-based; conditions: human, Table 3
Method: as §2, §3

[14] = system: Moloney Sarcoma Virus [MSV]; test: MSV-induced tumour formation and survival in NMRI mice; assay type: in vivo; conditions: MSV infected mice; 50 [low] or 200 [high] mg/kg/day i.p. for 4 days
Method: Drug doses are 50[low ] or 200 [high] mg/kg/day given i.p. for 4 days starting 1 hour before MSV inoculation.
In Vivo Testing Inhibitory Effects of Test Compounds on the Initiation of MSV-Induced Tumour Formation in NRMI Mice and on the Survival of MSV Innoculated NMRI Mice.
Mice infected with Moloney Sarcoma Virus [MSV] were treated daily with either placebo, or d4T [at one of two doses] or with compound 324 at one of the same [equi-molar] doses.
Two- to three-day old NMRI mice (weighing—2 gram) were innoculated subcutaneously (s.c.) in the left hind leg with 50 μl MSV (100 foci forming units, as measured by in vitro determination of the virus-induced transformation of murine C3H embryo fibroblast cells). At 4 to 5 days post-infection, tumours develop and rapidly increase in volume upon further aging of the mice. Within 10 to 12 days post-infection, mice (then weighing—5 to 6 gram) die from the viral infection. Drug treatment started 1 hour prior to infection of the virus, and further compound administration was given daily i.p. for an additional 3 days. The mean day of tumour initiation (±standard deviation) and the mean day of survival of the mice (±standard deviation) was calculated and statistical significance of the average delay of tumour formation and the mean day of survival in the treated groups versus the untreated (control) group was assessed by two-tailed student's t-test.

[15] = system: HIV-1 (GB8 or IIIB strains); test: Anti-HIV-1 activity in JM cells; assay type: cell-based; conditions: Human immunodeficiency virus 1, IIIB; HIV1 in JM; Table 2
Method: as §2
JM cells JM cells, which are relatively resistant to the antiviral effects of AZT and a number of its derivatives, were infected with HIV-1 strains and the antiviral and toxic effects of compounds assessed as for C8166 cells. Both GB8 or IIIB strains of HIV1 were used, with no delectable differences in the end-points noted.
as §3

[16] = Human immunodeficiency virus 1, CCRF-CEM, read-out: EC50 CEM HIV1
[17] = Human immunodeficiency virus 1, C8166, Table 4, read-out: EC50 8166 HIV1
[18] = Table 4, read-out: EC50 CEM TK− HIV2
[19] = Table 6, mean of two or more repeat experiments, read-out: HIV2 CEM-TK-: EC50 for inhibition of HIV-2 in CEM/TK^− cells
[20] = read-out: EC50 CEM HIV1, Table 4
[21] = read-out: HIV1 CEM: EC50 for inhibition of HIV-1 in CEM cells, Table 6, mean of two or more repeat experiments
[22] = HIV1 in C8166 cells, Table 3, read-out: Activity EC50
[23] = Table 4, read-out: EC50 8166 HIV1
[24] = Table 6, mean of two or more repeat experiments, read-out: HIV2 CEM: EC50 for inhibition of HIV-2 in CEM cells
[25] = Human immunodeficiency virus 2, CEM-TK(-), read-out: EC50 CEM TK^−
[26] = Human immunodeficiency virus 1, HeLa

Compound | EC50 [2, 16] | EC50 [3, 17] | EC50 HIV RT [4] | CC50 [5] | CC50 [6] | EC50 [1, 18] | EC50 [1, 19] | EC50 [7] | EC50 [2, 20] | EC50 [2, 21] | CC50 [8] | EC50 ([9]; Table 4) | EC50 [10] | EC50 [11] | Selectivity CC50/EC50 × 10^3 [3] | EC50 [3, 22] | EC50 [3, 23] | EC50 [12, 24] | also measured
Cc1cn([C@H]2C[C@H](N=[N+]=[N-])[C@@H](CO)O2)c(=O)[nH]c1=O [AZT, 3′-azido-3′-deoxythymidine, reference compound] | 0.003 µM | 0.008 µM | Inactive | – | – | – | – | – | – | – | – | – | – | – | – | – | – | – | EC50 ([1]; Human immunodeficiency virus 2, CEM-TK(-), Table 4, read-out: EC50 CEM TK− HIV2): > 100 µM
COC(=O)C(C)NP(=O)(OCC1C=CC(n2cc(C)c(=O)[nH]c2=O)O1)Oc1cccc(C(F)(F)F)c1 (stereo not drawn) [Compound 526, 2′,3′-dideoxy-2′,3′-didehydrothymidine 5′-(m-trifluromethylphenylmethoxyalaninyl) phosphoramidate] | – | – | – | 30 µM | 200 µM | 0.06 µM | 0.12 µM | 0.04 µM | 0.08 µM | 0.15 µM | 10 µM | 0.05 µM | 0.11 µM | 0.05 µM | 250 × 10^3 | 0.0008 µM | 0.0008 µM | 0.15 µM | –
COC(=O)C(C)NP(=O)(OC[C@@H]1C=C[C@H](n2cc(C)c(=O)[nH]c2=O)O1)Oc1cc(Cl)cc(Cl)c1 (stereo partly drawn) [Compound 546, 2′,3′-dideoxy-2′,3′-didehydrothymidine 5′-(3,5-dichlorophenylmethoxyalaninyl) phosphoramidate] | – | – | – | 26.9 µM | 100 µM | 0.06 µM | 0.12 µM | 0.03 µM | 0.06 µM | 0.12 µM | 10.5 µM | 0.04 µM | 0.12 µM | 0.037 µM | 100 × 10^3 | 0.001 µM | 0.001 µM | 0.15 µM | –
Cc1cn(C2C=CC(COP(=O)(NC(Cc3ccccc3)C(=O)OCc3ccccc3)Oc3ccccc3)O2)c(=O)[nH]c1=O (stereo not drawn) [Compound 866, 2′,3′-dideoxy-2′,3′-didehydrothymidine-5′-(phenyl N-methoxyglycinyl) phosphoramidate] | – | – | – | ≥ 250 µM | > 1000 µM | – | 7 µM | – | – | 6 µM | ≥ 250 µM | – | 6.7 µM | 1.3 µM | >1.25 × 10^3 | 0.8 µM | – | 6 µM | –
COC(=O)C(CCSC)NP(=O)(OCC1C=CC(n2cc(C)c(=O)[nH]c2=O)O1)Oc1ccccc1 (stereo not drawn) [Compound 867, 2′,3′-dideoxy-2′,3′-didehydrothymidine-5′-(phenyl N-methoxymethioninyl) phosphoramidate] | – | – | – | ≥ 250 µM | > 1000 µM | – | 0.34 µM | – | – | 0.6 µM | 22 µM | – | 0.4 µM | 0.2 µM | >62.5 × 10^3 | 0.0016 µM | – | 0.8 µM | –
Cc1cn([C@H]2C=C[C@@H](CO)O2)c(=O)[nH]c1=O [d4T, 2′,3′-dideoxy-2′,3′-didehydrothymidine, reference compound] | 0.5 µM | 0.08 µM | Inactive | – | – | – | – | – | – | – | – | – | – | – | 0.6 × 10^3 | – | – | – | CC50 [13]: 50 µM; delay in death [14]: failed to give any detectable delay; delay in tumour appearance [14]: failed to give any detectable delay; EC50 [1, 25]: > 100 µM; EC50 ([1]; Human immunodeficiency virus 2, CEM-TK(-), read-out: EC50 CEM TK− HIV2): > 100 µM; EC50 [7, 26]: 0.86 µM; EC50 [9, 26]: 3.38 µM; EC50 ([3]; Human immunodeficiency virus 1, HIV1 in C8166, Table 2, read-out: EC50 C8166): 0.08 µM; EC50 ([3]; Human immunodeficiency virus 1, HIV1 in C8166 cells, Table 3, read-out: Activity EC50): 0.08 µM; EC50 [15]: 0.8 µM; EC50 [12, 25]: 1.2 µM

Reference: patent US7018989B2, “Chemical compounds” (University College Cardiff Consultants, LTD, priority 1995, dated 2006)
